Key:
[1] = test system: skin of a New Zealand white rabbit; assay: Skin irritation (Draize Primary Irritation Index)
Protocol: Skin irritations caused by theanine, caffeine, genistein, L-carnitine and catechin were measured observing edema and erythema on the skin of a New Zealand white rabbit.
Vehicle, 10% of theanine, caffeine, genistein, L-carnitine, catechin or mixture thereof were applied on the skin of a New Zealand white rabbit, twice a day for 4 days, total 8 times. After application, total skin irritation index was calculated by summing up the scores of erythema and edema. The skin irritation index was calculated according to Draize's skin Primary Irritation Index (P.I.I.) (Draize, J. H., Appraisal of the safety of chemical in foods, drugs and cosmetics).

3T3-L1 fat cells [2] = assay: Decomposition of fat: glycerol isolated into culture medium from 3T3-L1 fat cells; format: cell-based, rat; details: FIG. 1
Protocol: (§1) 3T3-L1 cell, fibroblast cell line of […], was inoculated in 6 well culture plate with 1×10^5cells/well and cultured in DMEM (Dulbecos modified eagles medium, GIBCO BRL, Life Technologes) containing 10% of fetal bovine serum (FBS). After 2 days of culture, culture medium was changed with a new DMEM (containing 10% FBS), and cultured further 2 days. Then the culture cell was deposited in a new DMEM (containing 10% FBS) containing 1 μg/ml of insulin, 0.5 mM of IBMX and 0.25 μM of dexamethasone to induce differentiation, after 2 days, the culture medium was changed with a new DMEM containing insulin, and cultured for 5 days. After 5 days of culture, the culture medium was changed with a normal DMEM (containing 10% FBS), and observed until cells changed to fat cells (adipocytes).
The degree of the decomposition of fat was observed by measuring the concentration of glycerol isolated into the culture medium from fat cell. Measurement of the quantity of the glycerol was performed with chromphoric reaction method using GPO-trinder kit purchased from Sigma (St. Louis, Mo., U.S.A.), and absorption was measured in 540 nm using ELISA reader, then the result of each component was calculated based on the data of the control settled to be 100%. […]

3T3-L1 cells = assay: Accumulation of neutral fat in fat cells (GPO-trinder, absorption at 540 nm); format: cell-based, rat; details: 3T3-L1 cells treated during cell differentiation; compared with control; FIG. 4
Protocol: as §1
3T3-L1 fat cells differentiated in the Reference Example 2 were washed with PBS (phosphate buffered saline) three times, and harvested with extraction buffer (20 mM of Tris, 1 mM of EDTA and 1 mM of 2-mercaptoethanol). The harvested cells passed G26 needle 6 times on an ice base, centrifuged at 15000×g, 4° C. for 3 minutes and the supernatant was gathered to obtain cell extracts. […]
Neutral fats in the cell extracts obtained same as Experimental Example 3 underwent chromphoric reaction using GPO-trinder kit purchased from Sigma (St. Louis, Mo., U.S.A.), and absorption was measured at 540 nm using ELISA reader.

3T3-L1 fat cells [3] = assay: Cell toxicity of theanine at high concentration; format: cell-based, mouse
β3-adrenergic receptor = assay: Expression of β3-adrenergic receptor by RT-PCR in 3T3-L1 fat cells; format: cell-based, rat; details: 0.005%, 24 hours, FIG. 2
Protocol: as §1
In order to clarify the mechanism of acceleration of decomposition of neutral fat by the theanine, 3T3-L1 fat cells differentiated in the Reference Example 2 were used. The cells were treated with 0.005% of theanine purchased from KuridaKogyo (Japan) (more than 97%) and comparative materials (caffeine, control), and 24 hours later, RNAs were extracted from the cells and performed RT-PCR. The RT-PCR kit was purchased from TaKaRa, and primer of β3 -adrenergic receptor was purchased from Bioneer.

[4] = New Zealand white, rabbit, in vivo, 4 days
[5] = New Zealand white rabbit, compared with control

Row | SMILES | Primary Irritation Index (0˜4) [1, 4] | skin irritation ([1]; rabbit, in vivo) | Primary Irritation Index (0˜4) ([1]; 10% solution on rabbit skin, twice a day for 4 days, total 8 times) | skin irritation [1, 5] | concentration of glycerol isolated into the culture medium from fat cell (3T3-L1 fat cells [2]; compared with the control (100%)) | effect of decomposition of fat compared with caffeine (positive comparative control) (3T3-L1 fat cells [2]; same concentration of caffeine) | amount of neutral fat (3T3-L1 cells) | cell toxicity (3T3-L1 fat cells [3]) | expression of β3-adrenergic receptor (β3-adrenergic receptor)
1 | C[N+](C)(C)C[C@H](O)CC(=O)[O-] [L-carnitine] | 0.7 | do not cause skin irritation | – | – | – | – | – | – | –
2 | O=c1c(-c2ccc(O)cc2)coc2cc(O)cc(O)c12 [genistein] | – | – | 0.8 | do not cause skin irritation | – | – | – | – | –
3 | Cn1c(=O)c2c(ncn2C)n(C)c1=O [caffeine, reference compound] | 0.7 | – | – | do not cause skin irritation | – | – | – | – | –
4 | CCNC(=O)CC[C@H](N)C(=O)O [theanine] | 0.8 | do not cause skin irritation | – | – | increased | more excellent effect of decomposition of fat than that of caffeine | decreased | does not cause cell toxicity | increases
